The text below walks through data of US9040545B2, “Heterocyclyl pyrazolopyrimidine analogues as selective JAK inhibitors” (Cellzome Limited, priority 2010, dated 2015).

One experiment deals with T1, Aurora B (Homo sapiens, UniProt Q96GD4).
T1 construct: cell lysates from Jurkat cells (ATCC TIB-152) used; endogenous in cells; host or cells: Jurkat cells (ATCC TIB-152), treated with pervanadate
The experiment can be described thus: Kinobeads assay, Aurora B. The class given is binding. The conditions noted are these: for IC50: lysate of pervanadate-treated Jurkat cells, read-out: Inhibition values (IC50) Aur B.

Another experiment deals with T2, Aurora A (Homo sapiens, UniProt O14965).
T2 construct: cell lysates from Jurkat cells (ATCC TIB-152) used; endogenous in cells; host or cells: Jurkat cells (ATCC TIB-152), treated with pervanadate
T2 sequence (O14965 1-403): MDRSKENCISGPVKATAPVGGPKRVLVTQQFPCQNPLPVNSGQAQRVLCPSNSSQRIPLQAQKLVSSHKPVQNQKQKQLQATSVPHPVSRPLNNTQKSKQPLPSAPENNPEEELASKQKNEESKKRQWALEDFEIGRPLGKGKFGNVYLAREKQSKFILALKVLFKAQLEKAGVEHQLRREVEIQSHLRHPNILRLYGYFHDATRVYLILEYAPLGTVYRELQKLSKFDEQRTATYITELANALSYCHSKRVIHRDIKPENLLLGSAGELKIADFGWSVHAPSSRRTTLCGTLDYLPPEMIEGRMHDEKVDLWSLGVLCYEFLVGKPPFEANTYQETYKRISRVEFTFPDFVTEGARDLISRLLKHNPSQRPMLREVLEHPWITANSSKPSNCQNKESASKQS
Nature of the experiment: Kinobeads assay, Aurora A. Type of experiment: binding. The note with it: for IC50: lysate of pervanadate-treated Jurkat cells, read-out: Inhibition values (IC50) Aur A.

A value given as a limit tells only on which side of the number the result lay.

T1 sequence (Q96GD4 whole entry): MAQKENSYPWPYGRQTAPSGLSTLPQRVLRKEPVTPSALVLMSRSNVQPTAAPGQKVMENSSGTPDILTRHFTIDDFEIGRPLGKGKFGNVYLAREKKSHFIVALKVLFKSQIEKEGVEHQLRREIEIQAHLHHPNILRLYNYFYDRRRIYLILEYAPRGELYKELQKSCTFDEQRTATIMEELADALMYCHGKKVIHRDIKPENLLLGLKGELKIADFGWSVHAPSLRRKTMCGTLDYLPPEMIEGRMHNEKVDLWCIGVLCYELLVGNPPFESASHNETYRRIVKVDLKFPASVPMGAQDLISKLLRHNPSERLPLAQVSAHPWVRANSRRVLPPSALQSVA

Consider `Cn1cc(Nc2ncc3cnn(Cc4cccc(N5CCNCC5)c4)c3n2)cn1` [Example 22, N-(1-Methyl-1H-pyrazol-4-yl)-1-(3-(piperazin-1-yl)benzyl)-1H-pyrazolo[3,4-d]pyrimidin-6-amine], for which, at Aurora B, the “JAK3/AurB Fold Selectivity” value is above 50 Fold and the IC50 (in general, the concentration at which inhibition is half-maximal) lay in the range of 100 to 1000 nM. For the same compound, at Aurora A, the “JAK3/AurA Fold Selectivity” value is listed as 10-50 Fold and the IC50 was in the range of 100 to 1000 nM.
In the case of `CN(C)CC(F)Cn1cc(Nc2ncc3cnn(Cc4cc(F)cc(N5CCOCC5=O)c4)c3n2)cn1` (stereo not drawn) [Example 97, 4-(3-((6-((1-(3-(dimethylamino)-2-fluoropropyl)-1H-pyrazol-4-yl)amino)-1H-pyrazolo[3,4-d]pyrimidin-1-yl)methyl)-5-fluorophenyl)morpholin-3-one], at Aurora B, the “JAK3/AurB Fold Selectivity” value is given as above 50 Fold and the half-inhibitory concentration (IC50) was 1000 to 10000 nM. Also, at Aurora A, the “JAK3/AurA Fold Selectivity” value is given as 10-50 Fold and the IC50 lay within 100 to 1000 nM.
As for `OCCn1cc(Nc2ncc3cnn(Cc4cccc(N5CCOCC5)c4)c3n2)cn1` [Example 5, 2-(4-((1-(3-Morpholinobenzyl)-1H-pyrazolo[3,4-d]pyrimidin-6-yl)amino)-1H-pyrazol-1-yl)ethanol], at Aurora B, the “JAK3/AurB Fold Selectivity” value is on record as above 50 Fold and the IC50 was in the range of 100 to 1000 nM. Also, on Aurora A, the “JAK3/AurA Fold Selectivity” value is 10-50 Fold and the IC50 is 100 to 1000 nM.
For the compound `O=C(Cn1cc(Nc2ncc3cnn(Cc4cc(F)cc(N5CCOCC5=O)c4)c3n2)cn1)N1CCNCC1` [Example 109, 4-(3-fluoro-5-((6-((1-(2-oxo-2-(piperazin-1-yl)ethyl)-1H-pyrazol-4-yl)amino)-1H-pyrazolo[3,4-d]pyrimidin-1-yl)methyl)phenyl)morpholin-3-one], at Aurora B, the “JAK3/AurB Fold Selectivity” value was 10-50 Fold and the IC50 was in the range of 100 to 1000 nM. Besides, at Aurora A, the “JAK3/AurA Fold Selectivity” value is 3-10 Fold and the IC50 was below 100 nM.
On the same counts, the results for `C[C@@H]1COCCN1c1cccc(Cn2ncc3cnc(Nc4cnn(C)c4)nc32)n1` [Example 1, (R)—N-(1-Methyl-1H-pyrazol-4-yl)-1-((6-(3-methylmorpholino)pyridin-2-yl)methyl)-1H-pyrazolo[3,4-d]pyrimidin-6-amine] are 10-50 Fold, 1000 to 10000 nM, 3-10 Fold and 100 to 1000 nM.
On the same counts, the results for `Cn1cc(Nc2ncc3cnn(Cc4cc(F)cc(-c5cnn(C)c5)c4)c3n2)cn1` [Example 125, 1-(3-fluoro-5-(1-methyl-1H-pyrazol-4-yl)benzyl)-N-(1-methyl-1H-pyrazol-4-yl)-1H-pyrazolo[3,4-d]pyrimidin-6-amine] are above 50 Fold, 1000 to 10000 nM, 10-50 Fold and 1000 to 10000 nM.
`Cn1cc(Nc2ncc3cnn(Cc4cccc(C(=O)N5CCOCC5)c4)c3n2)cn1` [Example 6, (3-((6-((1-Methyl-1H-pyrazol-4-yl)amino)-1H-pyrazolo[3,4-d]pyrimidin-1-yl)methyl)phenyl)(morpholino)methanone]: on Aurora B, the “JAK3/AurB Fold Selectivity” value was above 50 Fold and the IC50 lay in the range of 1000 to 10000 nM. On Aurora A, the “JAK3/AurA Fold Selectivity” value is 10-50 Fold and the IC50 was 100 to 1000 nM.
The corresponding values for `CCCn1cc(-c2cccc(Cn3ncc4cnc(Nc5cnn(C)c5)nc43)c2)cn1` [Example 119, N-(1-methyl-1H-pyrazol-4-yl)-1-(3-(1-propyl-1H-pyrazol-4-yl)benzyl)-1H-pyrazolo[3,4-d]pyrimidin-6-amine] are above 50 Fold, 1000 to 10000 nM, 10-50 Fold and 1000 to 10000 nM.
The corresponding values for `CNC(=O)Cn1cc(Nc2ncc3cnn(Cc4cccc(N5CCOCC5)c4)c3n2)cn1` [Example 12, N-Methyl-2-(4-((1-(3-morpholinobenzyl)-1H-pyrazolo[3,4-d]pyrimidin-6-yl)amino)-1H-pyrazol-1-yl)acetamide] are 10-50 Fold, 100 to 1000 nM, 3-10 Fold and 100 to 1000 nM.
Take `CN(C)CCCn1cc(Nc2ncc3cnn(Cc4cccc(N5CCOCC5)c4)c3n2)cn1` [Example 4, N-(1-(3-(Dimethylamino)propyl)-1H-pyrazol-4-yl)-1-(3-morpholinobenzyl)-1H-pyrazolo[3,4-d]pyrimidin-6-amine]: at Aurora B, the “JAK3/AurB Fold Selectivity” value is given as above 50 Fold and the IC50 was in the range of 100 to 1000 nM. For the same compound, at Aurora A, the “JAK3/AurA Fold Selectivity” value is on record as above 50 Fold and the IC50 is 1000 to 10000 nM.
As for `Cn1cc(Nc2ncc3cnn(Cc4cc(C(=O)N5CCOCC5)cc(F)c4F)c3n2)cn1` [Example 98, (3,4-difluoro-5-((6-((1-methyl-1H-pyrazol-4-yl)amino)-1H-pyrazolo[3,4-d]pyrimidin-1-yl)methyl)phenyl)(morpholino)methanone], at Aurora B, the “JAK3/AurB Fold Selectivity” value was 3-10 Fold and the IC50 was below 100 nM. On Aurora A, the “JAK3/AurA Fold Selectivity” value was 3-10 Fold and the IC50 is below 100 nM.
For `CNCC1(Cn2cc(Nc3ncc4cnn(Cc5cccc(N6CCOCC6)c5)c4n3)cn2)COC1` [Example 41, N-(1-((3-((Methylamino)methyl)oxetan-3-yl)methyl)-1H-pyrazol-4-yl)-1-(3-morpholinobenzyl)-1H-pyrazolo[3,4-d]pyrimidin-6-amine], on Aurora B, the “JAK3/AurB Fold Selectivity” value was 10-50 Fold and the IC50 is 1000 to 10000 nM. At Aurora A, the “JAK3/AurA Fold Selectivity” value is given as 10-50 Fold and the IC50 lay within 1000 to 10000 nM.
Regarding `Cn1cc(Nc2ncc3cnn(Cc4cccc(N5CCOCC5)c4F)c3n2)cn1` [Example 21, 1-(2-Fluoro-3-morpholinobenzyl)-N-(1-methyl-1H-pyrazol-4-yl)-1H-pyrazolo[3,4-d]pyrimidin-6-amine], on Aurora B, the “JAK3/AurB Fold Selectivity” value was above 50 Fold and the IC50 lay in the range of 1000 to 10000 nM. For the same compound, on Aurora A, the “JAK3/AurA Fold Selectivity” value was above 50 Fold and the IC50 fell in the range of 100 to 1000 nM.
With `FC(F)Cn1cc(Nc2ncc3cnn(Cc4cccc(N5CCOCC5)c4)c3n2)cn1` [Example 23, N-(1-(2,2-Difluoroethyl)-1H-pyrazol-4-yl)-1-(3-morpholinobenzyl)-1H-pyrazolo[3,4-d]pyrimidin-6-amine], on Aurora B, the “JAK3/AurB Fold Selectivity” value is reported as above 50 Fold and the half-inhibitory concentration (IC50) fell in the range of 1000 to 10000 nM. At Aurora A, the “JAK3/AurA Fold Selectivity” value was 3-10 Fold and the IC50 lay in the range of 100 to 1000 nM.
The corresponding values for `Cn1cc(Nc2ncc3cnn(Cc4cccc(-c5cn[nH]c5)c4)c3n2)cn1` [Example 118, 1-(3-(1H-pyrazol-4-yl)benzyl)-N-(1-methyl-1H-pyrazol-4-yl)-1H-pyrazolo[3,4-d]pyrimidin-6-amine] are 10-50 Fold, 1000 to 10000 nM, 10-50 Fold and 1000 to 10000 nM.
With `Cn1cc(Nc2ncc3cnn(Cc4c(F)ccc(N5CCOCC5)c4F)c3n2)cn1` [Example 38, 1-(2,6-Difluoro-3-morpholinobenzyl)-N-(1-methyl-1H-pyrazol-4-yl)-1H-pyrazolo[3,4-d]pyrimidin-6-amine], at Aurora B, the “JAK3/AurB Fold Selectivity” value was 10-50 Fold and the 50% inhibitory concentration (IC50) is 100 to 1000 nM. Further, at Aurora A, the “JAK3/AurA Fold Selectivity” value was 10-50 Fold and the IC50 is 100 to 1000 nM.
`Cn1cc(Nc2ncc3cnn(Cc4cccc(N5CCOCC5)c4)c3n2)cn1` [Example 2, N-(1-Methyl-1H-pyrazol-4-yl)-1-(3-morpholinobenzyl)-1H-pyrazolo[3,4-d]pyrimidin-6-amine]: at Aurora B, the “JAK3/AurB Fold Selectivity” value was above 50 Fold and the IC50 fell in the range of 1000 to 10000 nM. For the same compound, on Aurora A, the “JAK3/AurA Fold Selectivity” value is 10-50 Fold and the IC50 was 100 to 1000 nM.
On to `Cn1cc(-c2cccc(Cn3ncc4cnc(Nc5cnn(CCO)c5)nc43)c2F)cn1` [Example 124, 2-(4-((1-(2-fluoro-3-(1-methyl-1H-pyrazol-4-yl)benzyl)-1H-pyrazolo[3,4-d]pyrimidin-6-yl)amino)-1H-pyrazol-1-yl)ethanol], for which, at Aurora B, the “JAK3/AurB Fold Selectivity” value was 10-50 Fold and the IC50 was 100 to 1000 nM. For the same compound, on Aurora A, the “JAK3/AurA Fold Selectivity” value is 10-50 Fold and the IC50 is 100 to 1000 nM.
Take `Cn1cc(Nc2ncc3cnn(Cc4cccc(-c5cnn(C)c5)c4F)c3n2)cn1` [Example 123, 1-(2-fluoro-3-(1-methyl-1H-pyrazol-4-yl)benzyl)-N-(1-methyl-1H-pyrazol-4-yl)-1H-pyrazolo[3,4-d]pyrimidin-6-amine]: on Aurora B, the “JAK3/AurB Fold Selectivity” value was above 50 Fold and the IC50 was in the range of 1000 to 10000 nM. Moreover, on Aurora A, the “JAK3/AurA Fold Selectivity” value is given as 10-50 Fold and the IC50 is 1000 to 10000 nM.
In the case of `Cn1cc(Nc2ncc3cnn(Cc4cc(N5CCOCC5)cc(F)c4F)c3n2)cn1` [Example 37, 1-(2,3-Difluoro-5-morpholinobenzyl)-N-(1-methyl-1H-pyrazol-4-yl)-1H-pyrazolo[3,4-d]pyrimidin-6-amine], at Aurora B, the “JAK3/AurB Fold Selectivity” value is given as above 50 Fold and the IC50 was in the range of 1000 to 10000 nM. Also, at Aurora A, the “JAK3/AurA Fold Selectivity” value is 10-50 Fold and the IC50 lay within 1000 to 10000 nM.
`O=C1CCCN1CCCn1cc(Nc2ncc3cnn(Cc4cccc(N5CCOCC5)c4)c3n2)cn1` [Example 30, 1-(3-(4-((1-(3-Morpholinobenzyl)-1H-pyrazolo[3,4-d]pyrimidin-6-yl)amino)-1H-pyrazol-1-yl)propyl)pyrrolidin-2-one]: on Aurora B, the “JAK3/AurB Fold Selectivity” value was above 50 Fold and the IC50 lay within 1000 to 10000 nM. At Aurora A, the “JAK3/AurA Fold Selectivity” value was 10-50 Fold and the IC50 lay in the range of 100 to 1000 nM.
